Laboratory results published in ChEMBL document CHEMBL4219257, “Novel 8-hydroxyquinoline derivatives targeting β-amyloid aggregation, metal chelation and oxidative stress against Alzheimer's disease” (Bioorg Med Chem, 2018).
The source made the active and inactive calls. The calls are words filed in the database; no cut-off is given here.

What was measured:
[1] = Antioxidant activity assessed as trolox equivalents of AAPH radical scavenging activity at 10 uM preincubated for 15 mins followed by AAPH addition measured every minute for 120 mins by ORAC-FL assay; assay type: functional
[2] = target: T1, Amyloid-beta precursor protein (Homo sapiens, UniProt P05067); assay: Inhibition of HFIP-pretreated amyloid beta (1 to 42) (unknown origin) self-induced aggregation at 10 uM after 48 hrs by thioflavin T-based fluorometric assay relative to control
T1 sequence (P05067 whole entry): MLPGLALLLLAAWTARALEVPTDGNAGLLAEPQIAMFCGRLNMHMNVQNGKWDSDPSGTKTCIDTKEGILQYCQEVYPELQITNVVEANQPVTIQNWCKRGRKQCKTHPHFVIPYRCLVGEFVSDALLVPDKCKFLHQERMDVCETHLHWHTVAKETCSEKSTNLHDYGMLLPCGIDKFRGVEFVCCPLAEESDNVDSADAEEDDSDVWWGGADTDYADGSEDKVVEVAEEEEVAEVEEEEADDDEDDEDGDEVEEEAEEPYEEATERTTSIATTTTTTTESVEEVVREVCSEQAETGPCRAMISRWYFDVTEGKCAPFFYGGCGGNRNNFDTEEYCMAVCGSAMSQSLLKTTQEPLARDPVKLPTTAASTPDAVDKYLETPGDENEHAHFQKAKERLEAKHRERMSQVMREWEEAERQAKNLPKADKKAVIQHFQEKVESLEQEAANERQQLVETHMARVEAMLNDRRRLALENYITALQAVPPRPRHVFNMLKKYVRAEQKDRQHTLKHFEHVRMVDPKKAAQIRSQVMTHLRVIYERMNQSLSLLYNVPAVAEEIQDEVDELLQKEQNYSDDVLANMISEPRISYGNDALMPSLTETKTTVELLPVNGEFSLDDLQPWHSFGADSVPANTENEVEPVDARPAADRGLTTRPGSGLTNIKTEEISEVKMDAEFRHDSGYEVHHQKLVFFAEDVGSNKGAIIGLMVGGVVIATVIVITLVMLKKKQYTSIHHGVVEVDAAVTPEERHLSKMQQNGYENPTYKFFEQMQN

PC-12 [3] = assay: Cytoprotection against H2O2-induced oxidative stress in rat PC12 cells assessed as increase in cell viability up to 10 uM after 24 hrs by MTT assay; assay type: functional, cell-based
[4] = target: T1, Amyloid-beta precursor protein; assay: Inhibition of HFIP-pretreated amyloid beta (1 to 42) (unknown origin) self-induced aggregation after 48 hrs by thioflavin T-based fluorometric assay
in vitro = settings: PAMPA
Description: Permeability of the compound at 100 ug/ml after 10 hrs by PAMPA

[5] = Inhibition of Zn2+ - induced amyloid beta (1 to 42) (unknown origin) aggregation at 50 uM after 24 hrs by thioflavin T-based fluorometric assay relative to control
[6] = Inhibition of Cu2+ - induced amyloid beta (1 to 42) (unknown origin) aggregation at 50 uM after 24 hrs by thioflavin T-based fluorometric assay relative to control
PC-12 [7] = assay: Cytoprotection against H2O2-induced apoptosis in rat PC12 cells assessed as late apoptotic cells at 10 uM preincubated for 4 hrs followed by H2O2 addition measured after 24 hrs by Annexin V-FITC/propidium iodide staining based flow cytometry (reference value: 32.6%); assay type: functional
Mus musculus [8] = assay: Acute toxicity in Kunming mouse assessed as effect on body weight up to 2000 mg/kg, po measured after 4 hrs; assay type: organism-based; settings: in vivo
PC-12 [9] = assay: Cytoprotection against H2O2-induced apoptosis in rat PC12 cells assessed as late apoptotic cells at 2.5 uM preincubated for 4 hrs followed by H2O2 addition measured after 24 hrs by Annexin V-FITC/propidium iodide staining based flow cytometry (reference value: 32.6%); assay type: functional
PC-12 [10] = assay: Cytoprotection against H2O2-induced apoptosis in rat PC12 cells assessed as early apoptotic cells at 10 uM preincubated for 4 hrs followed by H2O2 addition measured after 24 hrs by Annexin V-FITC/propidium iodide staining based flow cytometry (reference value: 1.5%); assay type: functional
Mus musculus [11] = assay: Cardiotoxicity in Kunming mouse up to 2000 mg/kg, po measured after 14 days by macroscopic method; assay type: toxicity, organism-based; settings: in vivo, 336 h
PC-12 [12] = assay: Cytoprotection against H2O2-induced oxidative stress in rat PC12 cells assessed as increase in cell viability after 24 hrs by MTT assay; assay type: functional, cell-based
Mus musculus [13] = assay: Acute toxicity in Kunming mouse assessed as effect on food consumption up to 2000 mg/kg, po measured after 4 hrs; assay type: organism-based; settings: in vivo
Mus musculus [14] = assay: Acute toxicity in Kunming mouse assessed as fur sleekness up to 2000 mg/kg, po measured after 4 hrs; assay type: organism-based; settings: in vivo
Mus musculus [15] = assay: Acute toxicity in Kunming mouse assessed as effect on water consumption up to 2000 mg/kg, po measured after 4 hrs; assay type: organism-based; settings: in vivo
[16] = Metal chelating activity assessed as compound-Fe3+ complex formation at 50 uM measured after 20 mins by fluorescence spectroscopic method
PC-12 [17] = assay: Cytoprotection against H2O2-induced apoptosis in rat PC12 cells assessed as early apoptotic cells at 2.5 uM preincubated for 4 hrs followed by H2O2 addition measured after 24 hrs by Annexin V-FITC/propidium iodide staining based flow cytometry (reference value: 1.5%); assay type: functional
PC-12 [18] = assay: Cytoprotection against H2O2-induced apoptosis in rat PC12 cells assessed as late apoptotic cells at 5 uM preincubated for 4 hrs followed by H2O2 addition measured after 24 hrs by Annexin V-FITC/propidium iodide staining based flow cytometry (reference value: 32.6%); assay type: functional
PC-12 [19] = assay: Cytoprotection against H2O2-induced apoptosis in rat PC12 cells assessed as live cells at 2.5 uM preincubated for 4 hrs followed by H2O2 addition measured after 24 hrs by Annexin V-FITC/propidium iodide staining based flow cytometry (reference value: 57%); assay type: functional
Mus musculus [20] = assay: Acute toxicity in Kunming mouse assessed as death up to 2000 mg/kg, po measured after 4 hrs; assay type: organism-based; settings: in vivo
[21] = Metal chelating activity assessed as mole fraction of compound required to show 2:1 stoichiometry for compound-Zn2+ complex at 50 uM by Job's plot analysis
[22] = Metal chelating activity assessed as compound-Cu2+ complex formation by measuring maximum absorption wavelength at 50 uM measured after 30 mins by UV-vis spectrophotometric method (reference value: 241 nanometer)
PC-12 [23] = assay: Cytoprotection against H2O2-induced apoptosis in rat PC12 cells assessed as necrotic cells at 10 uM preincubated for 4 hrs followed by H2O2 addition measured after 24 hrs by Annexin V-FITC/propidium iodide staining based flow cytometry (reference value: 8.9%); assay type: functional
Mus musculus [24] = assay: Hepatotoxicity in Kunming mouse up to 2000 mg/kg, po measured after 14 days by macroscopic method; assay type: toxicity, organism-based; settings: in vivo, 336 h
PC-12 [25] = assay: Cytoprotection against H2O2-induced apoptosis in rat PC12 cells assessed as early apoptotic cells at 5 uM preincubated for 4 hrs followed by H2O2 addition measured after 24 hrs by Annexin V-FITC/propidium iodide staining based flow cytometry (reference value: 1.5%); assay type: functional
[26] = Metal chelating activity assessed as compound-Fe3+ complex formation at 50 uM measured after 30 mins by UV-vis spectrophotometric method
[27] = Metal chelating activity assessed as compound-Fe2+ complex formation at 50 uM measured after 20 mins by fluorescence spectroscopic method
PC-12 [28] = assay: Inhibition of H2O2-induced ROS level in rat PC12 cells assessed as mean fluorescence intensity at 2.5 uM preincubated for 4 hrs followed by H2O2 addition measured after 24 hrs by DCFH-DA staining based flow cytometry (reference value: 16947); assay type: functional
PC-12 [29] = assay: Inhibition of H2O2-induced ROS level in rat PC12 cells assessed as mean fluorescence intensity at 10 uM preincubated for 4 hrs followed by H2O2 addition measured after 24 hrs by DCFH-DA staining based flow cytometry (reference value: 16947); assay type: functional
[30] = Metal chelating activity assessed as compound-Cu2+ complex formation at 50 uM measured after 20 mins by fluorescence spectroscopic method
PC-12 [31] = assay: Inhibition of H2O2-induced ROS level in rat PC12 cells preincubated for 4 hrs followed by H2O2 addition measured after 24 hrs by DCFH-DA staining based flow cytometry; assay type: functional, cell-based
[32] = Metal chelating activity assessed as compound-Fe2+ complex formation by measuring maximum absorption wavelength at 50 uM measured after 30 mins by UV-vis spectrophotometric method (reference value: 241 nanometer)
PC-12 [33] = assay: Cytoprotection against oligomycin A-induced oxidative stress in rat PC12 cells assessed as increase in cell viability up to 10 uM after 24 hrs by MTT assay; assay type: functional, cell-based
Mus musculus [34] = assay: Acute toxicity in Kunming mouse assessed as mortality up to 2000 mg/kg, po measured after 14 days; assay type: organism-based; settings: in vivo, 336 h
[35] = Cytotoxicity against rat PC12 cells assessed as cell viability at 20 uM after 24 hrs by MTT assay relative to control; assay type: cell-based, PC-12; settings: read-out: Activity
PC-12 [36] = assay: Inhibition of H2O2-induced ROS level in rat PC12 cells assessed as mean fluorescence intensity at 5 uM preincubated for 4 hrs followed by H2O2 addition measured after 24 hrs by DCFH-DA staining based flow cytometry (reference value: 16947); assay type: functional
PC-12 [37] = assay: Cytoprotection against H2O2-induced apoptosis in rat PC12 cells assessed as live cells at 10 uM preincubated for 4 hrs followed by H2O2 addition measured after 24 hrs by Annexin V-FITC/propidium iodide staining based flow cytometry (reference value: 57%); assay type: functional
[38] = Metal chelating activity assessed as compound-Zn2+ complex formation by measuring maximum absorption wavelength at 50 uM measured after 30 mins by UV-vis spectrophotometric method (reference value: 241 nanometer)
Mus musculus [39] = assay: Nephrotoxicity in Kunming mouse up to 2000 mg/kg, po measured after 14 days by macroscopic method; assay type: toxicity, organism-based; settings: in vivo, 336 h
PC-12 [40] = assay: Cytoprotection against H2O2-induced apoptosis in rat PC12 cells assessed as necrotic cells at 2.5 uM preincubated for 4 hrs followed by H2O2 addition measured after 24 hrs by Annexin V-FITC/propidium iodide staining based flow cytometry (reference value: 8.9%); assay type: functional
[41] = Metal chelating activity assessed as compound-Zn2+ complex formation at 50 uM measured after 20 mins by fluorescence spectroscopic method
[42] = Metal chelating activity assessed as mole fraction of compound required to show 2.3:1 stoichiometry for compound-Cu2+ complex at 50 uM by Job's plot analysis
PC-12 [43] = assay: Cytoprotection against H2O2-induced apoptosis in rat PC12 cells assessed as necrotic cells at 5 uM preincubated for 4 hrs followed by H2O2 addition measured after 24 hrs by Annexin V-FITC/propidium iodide staining based flow cytometry (reference value: 8.9%); assay type: functional
PC-12 [44] = assay: Cytoprotection against H2O2-induced apoptosis in rat PC12 cells assessed as live cells at 5 uM preincubated for 4 hrs followed by H2O2 addition measured after 24 hrs by Annexin V-FITC/propidium iodide staining based flow cytometry (reference value: 57%); assay type: functional
PC-12 [45] = assay: Cytoprotection against rotenone-induced oxidative stress in rat PC12 cells assessed as increase in cell viability up to 10 uM after 24 hrs by MTT assay; assay type: functional, cell-based

Work on `COc1ccc(/C=C/C(=O)N2CCN(Cc3ccc(O)c4ncccc34)CC2)cc1` yielded an Activity [1] of 1.25 equiv and an inhibition [2] of 12.3%.

With `Cc1c(C)c2c(c(C)c1O)CCC(C)(C(=O)O)O2` (stereo not drawn) the Activity (PC-12 [3]) was “Active”.

`O=C(O)/C=C/c1ccccc1` gave an Activity [1] of 1.04 equiv.

For `O=C(/C=C/c1ccc(Cl)cc1)N1CCN(Cc2ccc(O)c3ncccc23)CC1`, the IC50 [4] was 22.6 µM, the Activity [1] was 0.69 equiv and the inhibition [2] was 25.7%.

Compound `O=C(/C=C/c1ccc(Br)cc1)N1CCN(Cc2ccc(O)c3ncccc23)CC1` has an Activity [1] of 0.93 equiv and an inhibition [2] of 8.65%.

For `COc1ccc(/C=C/C(=O)N2CCN(Cc3ccc(O)c4ncccc34)CC2)cc1OC`, the IC50 [4] was 18.9 µM, the Activity [1] was 1.08 equiv and the inhibition [2] was 29.4%. It also gave a Papp at 10 h, 100 ug/ml (in vitro) of 8.82 ×10⁻⁶ cm/s.

With `O=C(/C=C/c1ccc([N+](=O)[O-])cc1)N1CCN(Cc2ccc(O)c3ncccc23)CC1` the Activity [1] was 0.71 equiv and the inhibition [2] was 13.2%.

Compound `O=C(/C=C/c1ccc(F)cc1F)N1CCN(Cc2ccc(O)c3ncccc23)CC1` has an IC50 [4] of 5.05 µM, an Activity [1] of 1.57 equiv and an inhibition [2] of 73.4%. The inhibition [5] was 52%, the inhibition [6] was 62.1% and the Papp at 10 h, 100 ug/ml (in vitro) was 18.6 ×10⁻⁶ cm/s.

Compound `Cc1ccccc1/C=C/C(=O)N1CCN(Cc2ccc(O)c3ncccc23)CC1` has an IC50 [4] of 17.3 µM, an Activity [1] of 1.52 equiv and an inhibition [2] of 26.1%.

Work on `C[C@]12CC[C@@H]3c4ccc(O)cc4CC[C@H]3[C@@H]1CC[C@@H]2O` [ESTRADIOL] yielded a Papp at 10 h, 100 ug/ml (in vitro) of 9.17 ×10⁻⁶ cm/s.

`O=C(CCc1ccc(F)cc1)N1CCN(Cc2ccc(O)c3ncccc23)CC1` showed an IC50 [4] of 20.6 µM, an Activity [1] of 2.32 equiv and an inhibition [2] of 32.5%.

In the case of `O=C(CCc1ccccc1Cl)N1CCN(Cc2ccc(O)c3ncccc23)CC1`, the IC50 [4] is reported as 5.64 µM, the Activity (PC-12 [7]) is reported as 5.8% and the Activity (Mus musculus [8]) is reported as “Non-Toxic”. The Activity (PC-12 [9]) was 14.4%, the Activity (PC-12 [10]) was 2% and the Activity (Mus musculus [11]) was “Non-Toxic”. For the same compound, the Activity (PC-12 [12]) was “Dose-dependent effect”, the Activity (Mus musculus [13]) was “Non-Toxic” and the Activity (Mus musculus [14]) was “Non-Toxic”. The Activity (Mus musculus [15]) was “Non-Toxic”, the Activity [16] was “Active” and the Activity (PC-12 [17]) was 2.1%. The Activity (PC-12 [18]) was 8%, the Activity [1] was 2.63 equiv and the Activity (PC-12 [19]) was 79.9%. For the same compound, the Activity (Mus musculus [20]) was “Non-Toxic”, the Activity [21] was 0.66 molar ratio and the Activity [22] was 261 nm. For the same compound, the Activity (PC-12 [23]) was 1.3%, the Activity (Mus musculus [24]) was “Non-Toxic” and the Activity (PC-12 [25]) was 2.3%. For the same compound, the inhibition [2] was 65.8%, the Activity [26] was “Active” and the inhibition [5] was 73.3%. For the same compound, the Activity [27] was “Active”, the Flu intensity (PC-12 [28]) was 14556 and the Flu intensity (PC-12 [29]) was 9392. The Activity [30] was “Active”, the inhibition (PC-12 [31]) was “Dose-dependent effect” and the Activity [32] was 265 nm. For the same compound, the Activity (PC-12 [33]) was “Active”, the Activity (Mus musculus [34]) was “Non-Toxic” and the viability at 24 h, 20 µM [35] was 83%. The Flu intensity (PC-12 [36]) was 10332, the Activity (PC-12 [37]) was 90.9% and the Activity [38] was 260 nm. The Activity (Mus musculus [39]) was “Non-Toxic”, the Activity (PC-12 [40]) was 3.7% and the Activity [41] was “Active”. It also gave an inhibition [6] of 88.9%, an Activity [42] of 0.7 molar ratio and a Papp at 10 h, 100 ug/ml (in vitro) of 11.1 ×10⁻⁶ cm/s. The Activity (PC-12 [43]) was 1.4%, the Activity (PC-12 [44]) was 88.3% and the Activity (PC-12 [45]) was “Active”.
